This test is described as follows: Inhibition of electron transport protein complex 3 in glioma initiating cells assessed as increase in cell death at 50 uM after 48 hrs relative to control. In kind it is cell-based.

SMILES strings stand for the structures.

Regarding `O=CNc1cccc(C(=O)NC2CCCCCCCC2)c1O`, the fold change (FC) is above 1.2.

The record behind these values is ChEMBL document CHEMBL2203188, “Preparation of N-(Hetero)cyclyl Benzamides as Inhibitors of the Activity of Complex III of the Mitochondrial Electron Transport Chain: Patent Highlight” (ACS Med Chem Lett, 2012).
